What follows are compounds tested against T1, full-length human PKCι (Homo sapiens, UniProt P41743) (assay: PKCι IC50 IMAP fluorescence polarisation assay, full-length enzyme, 150 μM ATP). Conditions: read-out: IC50 in IMAP assay against full length PKCi at 150 μM ATP.
T1 construct: Recombinant, full-length human PKCι expressed in Sf21 insect cells is also commercially available; purchased EMD Millipore; host or cells: Sf21 insect cells (baculovirus)
T1 sequence (P41743 1-596): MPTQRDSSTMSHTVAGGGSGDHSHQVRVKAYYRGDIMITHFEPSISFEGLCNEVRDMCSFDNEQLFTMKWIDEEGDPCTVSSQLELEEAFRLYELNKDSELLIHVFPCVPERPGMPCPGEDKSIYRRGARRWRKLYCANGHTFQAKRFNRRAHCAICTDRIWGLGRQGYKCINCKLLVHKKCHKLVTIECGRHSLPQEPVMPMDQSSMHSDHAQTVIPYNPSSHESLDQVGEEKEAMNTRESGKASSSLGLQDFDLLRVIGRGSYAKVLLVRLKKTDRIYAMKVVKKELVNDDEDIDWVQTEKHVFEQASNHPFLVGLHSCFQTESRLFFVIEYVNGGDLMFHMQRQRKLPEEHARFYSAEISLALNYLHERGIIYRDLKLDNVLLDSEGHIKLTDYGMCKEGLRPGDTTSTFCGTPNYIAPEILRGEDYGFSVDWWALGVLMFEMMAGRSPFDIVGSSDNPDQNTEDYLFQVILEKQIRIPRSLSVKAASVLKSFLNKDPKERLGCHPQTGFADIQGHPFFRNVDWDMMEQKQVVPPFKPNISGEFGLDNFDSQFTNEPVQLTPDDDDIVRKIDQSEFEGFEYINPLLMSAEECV
Type: biochemical
Summary of the method: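 IMAP fluorescence polarisation kinase assay: 15 pM baculovirus-expressed human PKCiota with 100 nM FAM-pseudosubstrate peptide and 150 μM ATP, 1 h at 25 °C. IMAP detection reagent then 2 h at 25 °C before FP measurement. Inhibition referenced to no-compound and no-enzyme controls for IC50 fitting.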

SMILES | IC50 [nM]
CC1(C)CNCC[C@@H]1Nc1nc(-c2ccnc3[nH]c(-c4ccccc4F)cc23)nc2cncc(C3CC3)c12 [Example 394, {5-Cyclopropyl-2-[2-(2-fluoro-phenyl)-1H-pyrrolo[2,3-b]pyridin-4-yl]-pyrido[3,4-d]pyrimidin-4-yl}-((S)-3,3-dimethyl-piperidin-4-yl)-amine] | < 100
CC1(C)CNCC[C@@H]1Nc1nc(-c2ccnc3[nH]c(-c4cccnc4)cc23)nc2cncc(C3CC3)c12 [Example 395, [5-Cyclopropyl-2-(2-pyridin-3-yl-1H-pyrrolo[2,3-b]pyridin-4-yl)-pyrido[3,4-d]pyrimidin-4-yl]-((S)-3,3-dimethyl-piperidin-4-yl)-amine] | < 100
CN(c1nc(-c2ccnc3[nH]c(-c4ccccc4F)cc23)nc2cncc(C3CC3)c12)[C@H]1CCNCC1(C)C [Example 396, {5-Cyclopropyl-2-[2-(2-fluoro-phenyl)-1H-pyrrolo[2,3-b]pyridin-4-yl]-pyrido[3,4-d]pyrimidin-4-yl}-((S)-3,3-dimethyl-piperidin-4-yl)-methyl-amine] | < 100

Other lines, results leading:

IC50 [nM] | SMILES
< 100 | CC1(C)CNCC[C@@H]1Nc1nc(-c2ccnc(Nc3cc(F)ccn3)c2)nc2cncc(C3CC3)c12 [Example 392, {5-Cyclopropyl-2-[2-(4-fluoro-pyridin-2-ylamino)-pyridin-4-yl]-pyrido[3,4-d]pyrimidin-4-yl}-((S)-3,3-dimethyl-piperidin-4-yl)-amine]
< 100 | CC1(C)CNCC[C@@H]1Nc1nc(-c2ccnc(Nc3ccc(F)cn3)c2)nc2cncc(C3CC3)c12 [Example 393, {5-Cyclopropyl-2-[2-(5-fluoro-pyridin-2-ylamino)-pyridin-4-yl]-pyrido[3,4-d]pyrimidin-4-yl}-((S)-3,3-dimethyl-piperidin-4-yl)-amine]
